ChEMBL document CHEMBL3132769, “Fragment growing to retain or alter the selectivity of anchored kinase hinge-binding fragments” (Medchemcomm, 2014)

Assays:
[1] = biological target: Fibroblast growth factor receptor 4 (Homo sapiens) (UniProt P22455); assay: Inhibition of human FGFR4 catalytic domain expressed in baculovirus assessed as substrate phosphorylation using fluorescence-labelled peptides as substrate at 8 uM after 90 mins by microfluidic peptide phosphorylation assay
[2] = biological target: Aurora kinase B (Homo sapiens) (UniProt Q96GD4); assay: Inhibition of human full length AurB expressed in baculovirus assessed as substrate phosphorylation using fluorescence-labelled peptides as substrate at 8 uM after 90 mins by microfluidic peptide phosphorylation assay
Aurora kinase B (Homo sapiens), sequence (Q96GD4 whole entry, the tested form may be a part, canonical isoform): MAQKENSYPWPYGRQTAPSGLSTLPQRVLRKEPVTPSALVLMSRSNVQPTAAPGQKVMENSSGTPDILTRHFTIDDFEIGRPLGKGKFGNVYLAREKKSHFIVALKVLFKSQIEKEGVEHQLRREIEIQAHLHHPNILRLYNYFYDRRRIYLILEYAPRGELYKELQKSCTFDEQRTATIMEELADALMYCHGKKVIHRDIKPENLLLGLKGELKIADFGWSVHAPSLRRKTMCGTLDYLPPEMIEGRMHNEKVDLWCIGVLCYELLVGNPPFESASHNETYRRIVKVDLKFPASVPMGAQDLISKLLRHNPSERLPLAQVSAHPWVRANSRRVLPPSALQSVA

[3] = biological target: Casein kinase I isoform delta (Homo sapiens) (UniProt P48730); assay: Inhibition of human CK1D catalytic domain expressed in Escherichia coli cell assessed as substrate phosphorylation using fluorescence-labelled peptides as substrate at 0.06 uM after 90 mins by microfluidic peptide phosphorylation assay
Casein kinase I isoform delta (Homo sapiens), sequence (P48730 whole entry, looked up, the tested form may be a part, canonical isoform): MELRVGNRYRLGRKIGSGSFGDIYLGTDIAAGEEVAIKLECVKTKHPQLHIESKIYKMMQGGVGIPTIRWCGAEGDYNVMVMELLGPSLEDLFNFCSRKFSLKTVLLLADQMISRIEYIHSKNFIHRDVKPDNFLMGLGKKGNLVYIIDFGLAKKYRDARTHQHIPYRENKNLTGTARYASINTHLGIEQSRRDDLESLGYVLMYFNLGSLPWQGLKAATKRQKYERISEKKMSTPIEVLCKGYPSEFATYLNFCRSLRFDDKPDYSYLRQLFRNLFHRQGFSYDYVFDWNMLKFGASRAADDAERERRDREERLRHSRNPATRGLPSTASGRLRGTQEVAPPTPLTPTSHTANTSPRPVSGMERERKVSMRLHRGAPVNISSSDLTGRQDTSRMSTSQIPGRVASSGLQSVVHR

[4] = biological target: Rho-associated protein kinase 2 (Homo sapiens) (UniProt O75116); assay: Inhibition of human ROCK2 catalytic domain expressed in baculovirus assessed as substrate phosphorylation using fluorescence-labelled peptides as substrate at 0.06 uM after 90 mins by microfluidic peptide phosphorylation assay
Rho-associated protein kinase 2 (Homo sapiens), sequence (O75116 whole entry, looked up, the tested form may be a part): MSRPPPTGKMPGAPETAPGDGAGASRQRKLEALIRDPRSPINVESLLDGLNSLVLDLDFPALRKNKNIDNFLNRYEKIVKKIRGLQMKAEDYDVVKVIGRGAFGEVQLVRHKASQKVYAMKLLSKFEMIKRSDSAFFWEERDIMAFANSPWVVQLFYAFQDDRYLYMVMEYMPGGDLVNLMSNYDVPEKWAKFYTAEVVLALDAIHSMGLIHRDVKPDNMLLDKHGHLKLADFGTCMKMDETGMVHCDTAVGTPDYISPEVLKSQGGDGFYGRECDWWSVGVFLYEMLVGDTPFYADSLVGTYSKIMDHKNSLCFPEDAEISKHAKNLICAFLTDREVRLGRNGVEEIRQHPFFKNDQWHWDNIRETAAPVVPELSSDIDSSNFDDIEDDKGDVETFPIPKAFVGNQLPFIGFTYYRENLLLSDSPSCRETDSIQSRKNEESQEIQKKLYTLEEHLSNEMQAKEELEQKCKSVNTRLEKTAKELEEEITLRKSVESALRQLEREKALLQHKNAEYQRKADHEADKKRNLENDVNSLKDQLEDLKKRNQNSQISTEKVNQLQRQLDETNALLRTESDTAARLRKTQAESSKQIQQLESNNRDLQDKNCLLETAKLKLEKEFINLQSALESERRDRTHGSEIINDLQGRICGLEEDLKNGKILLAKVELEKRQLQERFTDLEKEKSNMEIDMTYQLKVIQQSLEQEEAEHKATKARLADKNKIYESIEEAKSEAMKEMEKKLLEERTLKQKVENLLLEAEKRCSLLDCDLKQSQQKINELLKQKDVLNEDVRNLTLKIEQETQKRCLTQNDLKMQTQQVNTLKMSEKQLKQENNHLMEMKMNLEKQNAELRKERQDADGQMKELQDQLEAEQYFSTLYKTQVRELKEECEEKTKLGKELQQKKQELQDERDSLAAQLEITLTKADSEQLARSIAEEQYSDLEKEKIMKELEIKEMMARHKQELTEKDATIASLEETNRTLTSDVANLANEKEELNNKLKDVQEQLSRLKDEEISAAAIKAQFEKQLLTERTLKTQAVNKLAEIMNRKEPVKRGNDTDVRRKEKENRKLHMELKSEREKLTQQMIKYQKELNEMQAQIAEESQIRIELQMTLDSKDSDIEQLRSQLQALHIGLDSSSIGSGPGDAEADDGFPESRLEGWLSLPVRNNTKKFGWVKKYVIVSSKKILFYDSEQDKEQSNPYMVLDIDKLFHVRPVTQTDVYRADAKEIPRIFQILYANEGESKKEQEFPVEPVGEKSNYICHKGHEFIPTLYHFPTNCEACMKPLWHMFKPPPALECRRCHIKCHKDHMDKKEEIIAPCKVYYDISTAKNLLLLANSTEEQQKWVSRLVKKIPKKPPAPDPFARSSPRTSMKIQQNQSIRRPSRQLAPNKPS

[5] = biological target: T1, Serine/threonine-protein kinase Chk1 (Homo sapiens) (UniProt O14757); assay: Inhibition of human full length CHK1 expressed in baculovirus assessed as substrate phosphorylation using fluorescence-labelled peptides as substrate at 0.06 uM after 90 mins by microfluidic peptide phosphorylation assay
T1 sequence (whole entry): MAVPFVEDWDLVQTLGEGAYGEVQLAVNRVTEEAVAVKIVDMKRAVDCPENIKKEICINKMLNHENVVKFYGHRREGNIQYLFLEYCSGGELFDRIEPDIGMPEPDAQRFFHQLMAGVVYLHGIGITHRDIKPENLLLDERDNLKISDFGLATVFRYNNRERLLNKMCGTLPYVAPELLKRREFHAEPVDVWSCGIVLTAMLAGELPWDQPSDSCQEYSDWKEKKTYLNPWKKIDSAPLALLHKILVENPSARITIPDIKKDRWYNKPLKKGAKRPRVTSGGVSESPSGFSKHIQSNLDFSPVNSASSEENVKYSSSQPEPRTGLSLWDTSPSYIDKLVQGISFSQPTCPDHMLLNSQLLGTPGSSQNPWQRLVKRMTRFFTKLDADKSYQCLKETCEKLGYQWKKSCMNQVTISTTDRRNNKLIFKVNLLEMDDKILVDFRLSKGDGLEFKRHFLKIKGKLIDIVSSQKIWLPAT

[6] = biological target: Mitogen-activated protein kinase 14 (Homo sapiens) (UniProt Q16539); assay: Inhibition of human truncated p38 alpha expressed in Escherichia coli cell assessed as substrate phosphorylation using fluorescence-labelled peptides as substrate at 0.06 uM after 90 mins by microfluidic peptide phosphorylation assay
Mitogen-activated protein kinase 14 (Homo sapiens), sequence (Q16539 whole entry, the tested form may be a part): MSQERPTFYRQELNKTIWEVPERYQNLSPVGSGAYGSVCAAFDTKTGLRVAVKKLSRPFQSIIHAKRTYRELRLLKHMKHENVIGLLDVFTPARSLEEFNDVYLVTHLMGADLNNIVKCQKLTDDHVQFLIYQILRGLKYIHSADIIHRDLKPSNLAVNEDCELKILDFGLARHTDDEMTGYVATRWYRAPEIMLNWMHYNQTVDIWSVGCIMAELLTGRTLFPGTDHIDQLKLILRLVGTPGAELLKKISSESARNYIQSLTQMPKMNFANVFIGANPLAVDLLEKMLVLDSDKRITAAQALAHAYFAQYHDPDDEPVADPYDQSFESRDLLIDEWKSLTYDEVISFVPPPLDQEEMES

[7] = biological target: T2, Serine/threonine-protein kinase D2 (Homo sapiens) (UniProt Q9BZL6); assay: Inhibition of human full length PKD2 expressed in baculovirus assessed as substrate phosphorylation using fluorescence-labelled peptides as substrate at 0.2 uM after 90 mins by microfluidic peptide phosphorylation assay
T2 sequence (whole entry): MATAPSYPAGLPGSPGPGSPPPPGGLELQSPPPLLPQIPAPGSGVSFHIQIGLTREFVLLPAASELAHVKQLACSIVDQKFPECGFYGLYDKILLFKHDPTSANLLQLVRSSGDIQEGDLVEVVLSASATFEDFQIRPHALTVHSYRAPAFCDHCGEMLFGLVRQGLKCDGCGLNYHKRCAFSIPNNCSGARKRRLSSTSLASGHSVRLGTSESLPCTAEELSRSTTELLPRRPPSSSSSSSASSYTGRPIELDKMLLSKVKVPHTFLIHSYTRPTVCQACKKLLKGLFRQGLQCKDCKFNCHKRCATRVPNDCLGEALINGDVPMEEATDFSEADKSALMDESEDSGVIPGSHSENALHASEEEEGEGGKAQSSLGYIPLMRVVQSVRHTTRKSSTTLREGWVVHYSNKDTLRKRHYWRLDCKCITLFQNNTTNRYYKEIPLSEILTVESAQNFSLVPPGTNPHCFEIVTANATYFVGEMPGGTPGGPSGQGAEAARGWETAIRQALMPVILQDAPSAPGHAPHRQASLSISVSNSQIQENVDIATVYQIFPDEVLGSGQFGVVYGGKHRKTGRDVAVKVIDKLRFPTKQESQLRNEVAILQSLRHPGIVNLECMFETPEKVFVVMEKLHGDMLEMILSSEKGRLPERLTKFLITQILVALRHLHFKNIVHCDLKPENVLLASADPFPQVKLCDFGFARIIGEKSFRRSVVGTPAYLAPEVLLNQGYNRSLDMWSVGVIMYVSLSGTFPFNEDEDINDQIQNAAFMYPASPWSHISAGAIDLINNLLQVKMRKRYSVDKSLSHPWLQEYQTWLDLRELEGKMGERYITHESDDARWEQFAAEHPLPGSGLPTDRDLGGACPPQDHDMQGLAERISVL

[8] = biological target: Casein kinase I isoform alpha (Homo sapiens) (UniProt P48729); assay: Inhibition of human full length CSNK1A1 expressed in baculovirus assessed as substrate phosphorylation using fluorescence-labelled peptides as substrate at 2 uM after 90 mins by microfluidic peptide phosphorylation assay
Casein kinase I isoform alpha (Homo sapiens), sequence (P48729 2-337 limits assumed): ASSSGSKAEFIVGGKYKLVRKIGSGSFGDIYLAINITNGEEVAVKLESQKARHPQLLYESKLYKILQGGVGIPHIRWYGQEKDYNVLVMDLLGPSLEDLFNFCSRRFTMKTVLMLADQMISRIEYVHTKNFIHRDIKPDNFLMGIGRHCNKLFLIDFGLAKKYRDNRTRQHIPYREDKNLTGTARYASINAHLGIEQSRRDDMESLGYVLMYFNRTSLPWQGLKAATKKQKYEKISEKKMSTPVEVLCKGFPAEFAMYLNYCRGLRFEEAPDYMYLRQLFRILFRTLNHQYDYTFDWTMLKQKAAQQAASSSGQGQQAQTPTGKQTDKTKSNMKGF

[9] = biological target: Aurora kinase B (Homo sapiens) (UniProt Q96GD4); assay: Inhibition of human full length AurB expressed in baculovirus assessed as substrate phosphorylation using fluorescence-labelled peptides as substrate at […] after 90 mins by microfluidic peptide phosphorylation assay
[10] = biological target: T3, Mitogen-activated protein kinase 12 (Homo sapiens) (UniProt P53778); assay: Inhibition of human full length p38 gamma expressed in Escherichia coli cell assessed as substrate phosphorylation using fluorescence-labelled peptides as substrate at 9 uM after 90 mins by microfluidic peptide phosphorylation assay
T3 sequence (whole entry): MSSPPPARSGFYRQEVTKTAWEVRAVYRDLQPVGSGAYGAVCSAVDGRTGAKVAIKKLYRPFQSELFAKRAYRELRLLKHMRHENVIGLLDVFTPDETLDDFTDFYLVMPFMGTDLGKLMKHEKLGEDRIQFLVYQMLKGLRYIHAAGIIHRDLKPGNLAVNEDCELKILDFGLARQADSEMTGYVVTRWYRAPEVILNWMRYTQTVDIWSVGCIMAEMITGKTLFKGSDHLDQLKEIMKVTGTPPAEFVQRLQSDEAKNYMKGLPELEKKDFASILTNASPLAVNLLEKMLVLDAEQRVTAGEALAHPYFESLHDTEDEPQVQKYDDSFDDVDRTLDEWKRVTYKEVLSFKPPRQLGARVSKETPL

[11] = biological target: Casein kinase I isoform delta (Homo sapiens) (UniProt P48730); assay: Inhibition of human CK1D catalytic domain expressed in Escherichia coli cell assessed as substrate phosphorylation using fluorescence-labelled peptides as substrate at 0.1 uM after 90 mins by microfluidic peptide phosphorylation assay
[12] = biological target: Tyrosine-protein kinase BTK (Homo sapiens) (UniProt Q06187); assay: Inhibition of human full length BTK expressed in baculovirus assessed as substrate phosphorylation using fluorescence-labelled peptides as substrate at 1000 uM after 90 mins by microfluidic peptide phosphorylation assay
Tyrosine-protein kinase BTK (Homo sapiens), sequence (Q06187 whole entry, the tested form may be a part): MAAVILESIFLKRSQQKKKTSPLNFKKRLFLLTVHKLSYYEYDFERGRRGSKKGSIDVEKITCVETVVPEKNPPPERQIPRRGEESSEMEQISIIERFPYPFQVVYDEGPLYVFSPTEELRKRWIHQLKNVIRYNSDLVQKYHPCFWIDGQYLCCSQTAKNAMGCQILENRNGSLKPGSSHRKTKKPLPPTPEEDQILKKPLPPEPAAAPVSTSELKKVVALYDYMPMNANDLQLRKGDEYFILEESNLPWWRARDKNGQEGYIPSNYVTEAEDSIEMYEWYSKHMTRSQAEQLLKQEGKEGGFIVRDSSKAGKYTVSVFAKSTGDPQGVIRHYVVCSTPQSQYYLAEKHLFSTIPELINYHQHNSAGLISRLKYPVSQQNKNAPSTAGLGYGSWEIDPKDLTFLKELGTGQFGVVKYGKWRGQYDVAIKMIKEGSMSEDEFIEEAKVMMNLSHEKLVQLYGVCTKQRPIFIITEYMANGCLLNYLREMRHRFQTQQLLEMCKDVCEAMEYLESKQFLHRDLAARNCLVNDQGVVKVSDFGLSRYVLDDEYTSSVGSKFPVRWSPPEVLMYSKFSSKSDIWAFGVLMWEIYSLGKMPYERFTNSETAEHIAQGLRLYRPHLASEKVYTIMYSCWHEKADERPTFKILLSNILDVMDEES

[13] = biological target: Serine/threonine-protein kinase PAK 2 (Homo sapiens) (UniProt Q13177); assay: Inhibition of human truncated PAK2 expressed in Escherichia coli cell assessed as substrate phosphorylation using fluorescence-labelled peptides as substrate at 70 uM after 90 mins by microfluidic peptide phosphorylation assay
Serine/threonine-protein kinase PAK 2 (Homo sapiens), sequence (Q13177 whole entry, the tested form may be a part): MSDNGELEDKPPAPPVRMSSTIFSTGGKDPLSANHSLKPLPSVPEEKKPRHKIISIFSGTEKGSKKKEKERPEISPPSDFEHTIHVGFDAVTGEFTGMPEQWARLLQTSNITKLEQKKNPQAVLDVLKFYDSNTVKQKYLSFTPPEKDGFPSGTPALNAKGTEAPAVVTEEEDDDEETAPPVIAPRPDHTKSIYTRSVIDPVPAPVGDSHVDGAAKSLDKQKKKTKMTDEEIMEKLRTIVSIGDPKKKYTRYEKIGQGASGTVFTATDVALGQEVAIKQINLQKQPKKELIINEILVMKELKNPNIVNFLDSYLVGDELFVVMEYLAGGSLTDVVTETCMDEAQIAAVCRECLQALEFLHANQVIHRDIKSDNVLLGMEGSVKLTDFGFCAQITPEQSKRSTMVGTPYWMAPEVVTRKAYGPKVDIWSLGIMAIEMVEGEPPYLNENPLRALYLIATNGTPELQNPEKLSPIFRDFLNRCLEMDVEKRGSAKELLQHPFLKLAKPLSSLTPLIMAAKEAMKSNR

Fibroblast growth factor receptor 4 (Homo sapiens), sequence (P22455 22-802 limits assumed): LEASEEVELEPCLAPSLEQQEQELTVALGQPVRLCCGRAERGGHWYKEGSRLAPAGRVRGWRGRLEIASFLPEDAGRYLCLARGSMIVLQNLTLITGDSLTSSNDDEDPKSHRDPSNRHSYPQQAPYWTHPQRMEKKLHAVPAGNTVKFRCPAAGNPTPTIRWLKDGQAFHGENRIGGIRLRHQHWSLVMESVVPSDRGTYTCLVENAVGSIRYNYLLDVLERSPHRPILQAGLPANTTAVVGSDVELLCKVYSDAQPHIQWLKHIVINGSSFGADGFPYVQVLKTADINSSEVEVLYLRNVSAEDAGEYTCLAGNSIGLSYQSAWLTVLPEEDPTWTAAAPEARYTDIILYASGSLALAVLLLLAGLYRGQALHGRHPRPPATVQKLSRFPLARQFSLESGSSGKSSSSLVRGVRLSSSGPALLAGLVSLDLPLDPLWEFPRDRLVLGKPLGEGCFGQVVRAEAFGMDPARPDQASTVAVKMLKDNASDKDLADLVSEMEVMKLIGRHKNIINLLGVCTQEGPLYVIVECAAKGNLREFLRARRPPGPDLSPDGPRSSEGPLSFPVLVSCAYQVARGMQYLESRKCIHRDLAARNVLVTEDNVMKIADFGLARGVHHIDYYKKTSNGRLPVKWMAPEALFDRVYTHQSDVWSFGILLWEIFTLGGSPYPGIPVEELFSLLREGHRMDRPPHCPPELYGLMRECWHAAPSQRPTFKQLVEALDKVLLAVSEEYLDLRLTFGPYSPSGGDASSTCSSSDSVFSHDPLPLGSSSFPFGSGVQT

## NCC1CCN(c2ncnc3[nH]ccc23)CC1
[1]
  inhibition: 27.5%
[2]
  inhibition: 76%

## NC1(Cc2ccc(Cl)cc2)CCN(c2ncnc3[nH]ccc23)CC1
[3]
  inhibition: 0.5%
[4]
  inhibition: 0%
[5]
  inhibition: 0%
[6]
  inhibition: 0%

## Clc1ccc(C2(c3ccc(-c4ncnc5[nH]cnc45)cc3)CCNCC2)cc1
[7]
  inhibition: 13%

## NC1CCN(c2ncnc3[nH]ccc23)CC1
[8]
  inhibition: 9.5%

## COC(=O)c1cnc(Nc2cnc(C#N)cn2)cc1NCC1CCNCC1
[9]
  inhibition: 4%

## NCC1CN(c2ncnc3[nH]c4cnccc4c23)CCO1 (stereo not drawn)
[10]
  inhibition: 4.5%

## C[C@H](CN(C)C)Oc1nc(Nc2cc3cccc(Cl)c3cn2)cnc1C#N
[11]
  inhibition: 9.5%

## c1cnc2[nH]ccc2c1
[12]
  inhibition: 19%

## CNCc1ccc(-c2ncnc3[nH]cnc23)cc1
[13]
  inhibition: 26%
